Test results: patent publication US20110082130A1 (LIGAND PHARMACEUTICALS, INC., priority 2006, published 2011)

Target: T1, chimeric human H3 receptor (Homo sapiens, UniProt Q9Y5N1)
T1 construct: made in house; host or cells: Sf9 insect cells (baculovirus); P2 membrane preparation
Assay: Chimeric human H3 receptor GTP binding assay (agonist-stimulated GTP-gamma35S binding, Example 7)
Format: biochemical
Settings: Table II; "*" = Ki in assay of Example 7 less than 1 micromolar
Outline: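 Sf9 membranes co-expressing chimeric human H3 receptor and heterotrimeric G-protein, 35 μg/tube, in pH 7.4 Tris buffer with 10 μM GDP. Test compounds (10^−10–10^−6 M) competed against 1 μM histamine, […] GTP-gamma35S, 60 min at room temperature. Filter-bound radioactivity counted; IC50 converted to Ki by Cheng-Prusoff. Agonism/inverse agonism tested without histamine (EC50).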

T1 sequence (Q9Y5N1 with tags, fused parts or gaps): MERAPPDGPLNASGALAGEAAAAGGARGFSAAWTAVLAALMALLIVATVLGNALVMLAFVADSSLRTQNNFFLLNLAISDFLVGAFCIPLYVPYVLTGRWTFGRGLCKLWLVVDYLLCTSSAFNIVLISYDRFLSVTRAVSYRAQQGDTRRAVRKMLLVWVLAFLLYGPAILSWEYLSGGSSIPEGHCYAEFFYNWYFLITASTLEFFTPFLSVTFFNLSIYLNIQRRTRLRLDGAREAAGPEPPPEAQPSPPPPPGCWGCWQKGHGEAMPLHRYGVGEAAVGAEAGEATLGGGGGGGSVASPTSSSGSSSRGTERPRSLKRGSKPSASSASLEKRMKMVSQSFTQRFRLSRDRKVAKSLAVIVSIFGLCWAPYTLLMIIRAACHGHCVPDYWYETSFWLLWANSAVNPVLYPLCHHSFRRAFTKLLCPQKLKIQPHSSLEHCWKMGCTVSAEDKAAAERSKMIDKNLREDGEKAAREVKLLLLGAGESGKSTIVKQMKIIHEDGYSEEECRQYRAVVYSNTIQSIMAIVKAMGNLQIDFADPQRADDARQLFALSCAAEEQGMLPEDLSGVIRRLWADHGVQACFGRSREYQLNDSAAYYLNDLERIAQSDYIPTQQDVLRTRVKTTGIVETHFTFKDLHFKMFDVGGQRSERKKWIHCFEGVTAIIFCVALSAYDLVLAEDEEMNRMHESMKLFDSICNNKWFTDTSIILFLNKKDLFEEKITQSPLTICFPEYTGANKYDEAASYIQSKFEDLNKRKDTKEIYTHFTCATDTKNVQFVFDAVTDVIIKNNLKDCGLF

Ki | SMILES
< 1 µM | O=C(CN1CCc2nc(-c3cncnc3)sc2C1)N1CCCC1CN1CCCC1 (stereo not drawn) [Compound 110, 5-{2-oxo-2-[2-(pyrrolidin-1-ylmethyl)pyrrolidin-1-yl]ethyl}-2-pyrimidin-5-yl-4,5,6,7-tetrahydro[1,3] thiazolo [5,4-c]pyridine]
< 1 µM | CC1CN(C(=O)CN2CCc3nc(-c4cncnc4)sc3C2)CCN1C1CCC1 (stereo not drawn) [Compound 111, 5-[2-(4-cyclobutyl-3-methylpiperazin-1-yl)-2-oxoethyl]-2-pyrimidin-5-yl-4,5,6,7-tetrahydro[1,3] thiazolo [5,4-c]pyridine]
< 1 µM | CC1CN(C(=O)CN2CCc3nc(-c4cscn4)sc3C2)CCN1C1CCC1 (stereo not drawn) [Compound 113, 5-[2-(4-cyclobutyl-3-methylpiperazin-1-yl)-2-oxoethyl]-2-(1,3-thiazol-4-yl)-4,5,6,7-tetrahydro[1,3]thiazolo [5,4-c]pyridine]
< 1 µM | CC1CN(C(=O)CN2CCc3nc(-c4ccncc4)sc3C2)CCN1C1CCC1 (stereo not drawn) [Compound 114, 5-[2-(4-cyclobutyl-3-methylpiperazin-1-yl)-2-oxoethyl]-2-pyridin-4-yl-4,5,6,7-tetrahydro[1,3]thiazolo [5,4-c]pyridine]
< 1 µM | CC1CN(C(=O)CN2CCc3nc(-c4nccs4)sc3C2)CCN1C1CCC1 (stereo not drawn) [Compound 115, 5-[2-(4-cyclobutyl-3-methylpiperazin-1-yl)-2-oxoethyl]-2-(1,3-thiazol-2-yl)-4,5,6,7-tetrahydro[1,3]thiazolo [5,4-c]pyridine]
< 1 µM | CCOC(=O)c1cnc2c(c1)CCN(CC(=O)N1CCN(C3CCC3)CC1)C2 [Compound 116, ethyl 7-[2-(4-cyclobutylpiperazin-1-yl)-2-oxoethyl]-5,6,7,8-tetrahydro-1,7-naphthyridine-3-carboxylate]
< 1 µM | CCOC(=O)c1cnc2c(c1)CCN(CC(=O)N1CCN(C3CCC3)C(C)C1)C2 (stereo not drawn) [Compound 117, ethyl 7-[2-(4-cyclobutyl-3-methylpiperazin-1-yl)-2-oxoethyl]-5,6,7,8-tetrahydro-1,7-naphthyridine-3-carboxylate]
< 1 µM | O=C(CN1CCc2cc(Br)ccc2C1)N1CCN(C2CCC2)CC1 [Compound 118, 6-bromo-2-[2-(4-cyclobutylpiperazin-1-yl)-2-oxoethyl]-1,2,3,4-tetrahydroisoquinoline]
< 1 µM | O=C(CN1CCc2cc(-c3cscn3)ccc2C1)N1CCN(C2CCC2)CC1 [Compound 119, 2-[2-(4-cyclobutylpiperazin-1-yl)-2-oxoethyl]-6-(1,3-thiazol-4-yl)-1,2,3,4-tetrahydroisoquinoline]
< 1 µM | O=C(CN1CCc2cc(-c3nccs3)ccc2C1)N1CCN(C2CCC2)CC1 [Compound 120, 2-[2-(4-cyclobutylpiperazin-1-yl)-2-oxoethyl]-6-(1,3-thiazol-2-yl)-1,2,3,4-tetrahydroisoquinoline]
< 1 µM | CNC(=O)c1cnc2c(c1)CCN(CC(=O)N1CCN(C3CCC3)C(C)C1)C2 (stereo not drawn) [Compound 121, 7-[2-(4-cyclobutyl-3-methylpiperazin-1-yl)-2-oxoethyl]-N-methyl-5,6,7,8-tetrahydro-1,7-naphthyridine-3-carboxamide]
< 1 µM | O=C(CN1CCc2cc(-n3cccn3)ccc2C1)N1CCN(C2CCC2)CC1 [Compound 122, 2-[2-(4-cyclobutylpiperazin-1-yl)-2-oxoethyl]-6-(1H-pyrazol-1-yl)-1,2,3,4-tetrahydroisoquinoline]
< 1 µM | O=C(CN1CCc2cn(-c3cccnc3)nc2C1)N1CCN(C2CCC2)CC1 [Compound 123, 6-[2-(4-cyclobutylpiperazin-1-yl)-2-oxoethyl]-2-pyridin-3-yl-4,5,6,7-tetrahydro-2H-pyrazolo[3,4-c]pyridine]
< 1 µM | O=C(CN1CCc2cn(-c3cncnc3)nc2C1)N1CCN(C2CCC2)CC1 [Compound 124, 6-[2-(4-cyclobutylpiperazin-1-yl)-2-oxoethyl]-2-pyrimidin-5-yl-4,5,6,7-tetrahydro-2H-pyrazolo[3,4-c]pyridine]
< 1 µM | O=C(NC1CCC1)c1ccc2c(n1)CCN(CC(=O)N1CCN(C3CCC3)CC1)C2 [Compound 125, N-cyclobutyl-6-[2-(4-cyclobutylpiperazin-1-yl)-2-oxoethyl]-5,6,7,8-tetrahydro-1,6-naphthyridine-2-carboxamide]
< 1 µM | CC1CN(C(=O)CN2CCc3nc(C(=O)NC4CCC4)ccc3C2)CCN1C1CCC1 (stereo not drawn) [Compound 126, N-cyclobutyl-6-[2-(4-cyclobutyl-3-methylpiperazin-1-yl)-2-oxoethyl)-5,6,7,8-tetrahydro-1,6-naphthyridine-2-carboxamide]
< 1 µM | Cn1cc(-c2ccc3c(c2)CCN(CC(=O)N2CCN(C4CCC4)CC2)C3)cn1 [Compound 127, 2-[2-(4-cyclobutylpiperazin-1-yl)-2-oxoethyl]-6-(1-methyl-1H-pyrazol-4-yl)1,2,3,4-tetrahydroisoquinoline]
< 1 µM | O=C(CN1CCc2cc(-c3cnccn3)ccc2C1)N1CCN(C2CCC2)CC1 [Compound 128, 2-[2-(4-cyclobutylpiperazin-1-yl)-2-oxoethyl]-6-pyrazin-2-yl-1,2,3,4-tetrahydroisoquinoline]

Ki | SMILES
< 1 µM | O=C(CN1CCc2cc(-c3cccnn3)ccc2C1)N1CCN(C2CCC2)CC1 [Compound 129, 2-[2-(4-cyclobutylpiperazin-1-yl)-2-oxoethyl]-6-pyridazin-3-yl-1,2,3,4-tetrahydroisoquinoline]
< 1 µM | O=C(CN1CCc2cc(-c3ccccn3)ccc2C1)N1CCN(C2CCC2)CC1 [Compound 130, 2-[2-(4-cyclobutylpiperazin-1-yl)-2-oxoethyl]-6-pyridin-2-yl-1,2,3,4-tetrahydroisoquinoline]
< 1 µM | O=C(CN1CCc2cc(-c3ncccn3)ccc2C1)N1CCN(C2CCC2)CC1 [Compound 131, 2-[2-(4-cyclobutylpiperazin-1-yl)-2-oxoethyl]-6-pyrimidin-2-yl-1,2,3,4-tetrahydroisoquinoline]
< 1 µM | O=C(CN1CCc2cc(-c3cncs3)ccc2C1)N1CCN(C2CCC2)CC1 [Compound 132, 2-[2-(4-cyclobutylpiperazin-1-yl)-2-oxoethyl]-6-(1,3-thiazol-5-yl)-1,2,3,4-tetrahydroisoquinoline]
< 1 µM | O=C(CN1CCc2[nH]c(=O)ccc2C1)N1CCN(C2CCCC2)CC1 [Compound 133, 6-[2-(4-cyclopentylpiperazin-1-yl)-2-oxoethyl]-5,6,7,8-tetrahydro-1,6-naphthyridin-2(1H)-one]
< 1 µM | O=C(CN1CCc2[nH]c(=O)ccc2C1)N1CCN(C2CCC2)CC1 [Compound 134, 6-[2-(4-cyclobutylpiperazin-1-yl)-2-oxoethyl]-5,6,7,8-tetrahydro-1,6-naphthyridin-2(1H)-one]
< 1 µM | CC(C)N1CCN(C(=O)CN2CCc3[nH]c(=O)ccc3C2)CC1 [Compound 135, 6-[2-(4-isopropylpiperazin-1-yl)-2-oxoethyl]-5,6,7,8-tetrahydro-1,6-naphthyridin-2(1H)-one]
< 1 µM | O=C(CN1CCc2[nH]c(=O)ccc2C1)N1CCN(C2CCCCC2)CC1 [Compound 136, 6-[2-(4-cyclohexylpiperazin-1-yl)-2-oxoethyl]-5,6,7,8-tetrahydro-1,6-naphthyridin-2(1H)-one]
< 1 µM | O=C(CN1CCc2nc(-c3ccncc3)ncc2C1)N1CCN(C2CCC2)CC1 [Compound 137, 6-[2-(4-cyclobutylpiperazin-1-yl)-2-oxoethyl]-2-pyridin-4-yl-5,6,7,8-tetrahydropyrido[4,3-d]pyrimidine]
< 1 µM | O=C(CN1CCc2nc(-c3ccncc3)ncc2C1)N1CCN(C2CCCC2)CC1 [Compound 138, 6-[2-(4-cyclopentylpiperazin-1-yl)-2-oxoethyl]-2-pyridin-4-yl-5,6,7,8-tetrahydropyrido[4,3-d]pyrimidine]
< 1 µM | O=C(CN1CCc2nc(N3CCOCC3)ncc2C1)N1CCN(C2CCC2)CC1 [Compound 139, 6-[2-(4-cyclobutylpiperazin-1-yl)-2-oxoethyl]-2-morpholin-4-yl-5,6,7,8-tetrahydropyrido[4,3-d]pyrimidine]
< 1 µM | O=C(CN1CCc2nc(N3CCOCC3)ncc2C1)N1CCN(C2CCCC2)CC1 [Compound 140, 6-[2-(4-cyclopentylpiperazin-1-yl)-2-oxoethyl]-2-morpholin-4-yl-5,6,7,8-tetrahydropyrido[4,3-d]pyrimidine]
< 1 µM | CC(=O)c1ccc2c(c1)CCN(CC(=O)N1CCN(C(C)C)CC1)C2 [Compound 141, 1-{2-[2-(4-isopropylpiperazin-1-yl)-2-oxoethyl]-1,2,3,4-tetrahydroisoquinolin-6-yl}ethanone]
< 1 µM | CC(=O)c1ccc2c(c1)CCN(CC(=O)N1CCN3C(C)CCCC3C1)C2 (stereo not drawn) [Compound 142, 1-{2-[2-(6-methyloctahydro-2H-pyrido[1,2-a]pyrazin-2-yl)-2-oxoethyl]-1,2,3,4-tetrahydroisoquinolin-6-yl}ethanone]
< 1 µM | O=C(CN1CCc2nc(-c3cccnc3)ncc2C1)N1CCN(C2CCC2)CC1 [Compound 143, 6-[2-(4-cyclobutylpiperazin-1-yl)-2-oxoethyl]-2-pyridin-3-yl-5,6,7,8-tetrahydropyrido[4,3-d]pyrimidine]
< 1 µM | O=C(CN1CCc2nc(-c3ccccn3)ncc2C1)N1CCN(C2CCC2)CC1 [Compound 144, 6-[2-(4-cyclobutylpiperazin-1-yl)-2-oxoethyl]-2-pyridin-2-yl-5,6,7,8-tetrahydropyrido[4,3-d]pyrimidine]
< 1 µM | CCC(CC)N1CCN(C(=O)CN2CCc3cc(-c4cncnc4)ccc3C2)CC1 [Compound 145, 2-{2-[4-(1-ethylpropyl)piperazin-1-yl]-2-oxoethyl}-6-pyrimidin-5-yl-1,2,3,4-tetrahydroisoquinoline]
< 1 µM | O=C(CN1CCc2cc(Br)ccc2C1)N1CCN2CCCCC2C1 (stereo not drawn) [Compound 148, 2-[(6-bromo-3,4-dihydroisoquinolin-2(1H)-yl)acetyl]octahydro-2H-pyrido[1,2-a]pyrazine]
